Changes are numbered by the printed parent chain.
Legend:
wt12-LOX = target: T1, wt12-LOX (Homo sapiens, UniProt P18054); experiment: UV-Vis-based IC50 assay, wild type 12-LOX; assay type: biochemical
T1 construct: 6xHis (N); made in house; insert in pFastBac1 shuttle vector (baculovirus system, own inference)
T1 sequence (P18054 1-663): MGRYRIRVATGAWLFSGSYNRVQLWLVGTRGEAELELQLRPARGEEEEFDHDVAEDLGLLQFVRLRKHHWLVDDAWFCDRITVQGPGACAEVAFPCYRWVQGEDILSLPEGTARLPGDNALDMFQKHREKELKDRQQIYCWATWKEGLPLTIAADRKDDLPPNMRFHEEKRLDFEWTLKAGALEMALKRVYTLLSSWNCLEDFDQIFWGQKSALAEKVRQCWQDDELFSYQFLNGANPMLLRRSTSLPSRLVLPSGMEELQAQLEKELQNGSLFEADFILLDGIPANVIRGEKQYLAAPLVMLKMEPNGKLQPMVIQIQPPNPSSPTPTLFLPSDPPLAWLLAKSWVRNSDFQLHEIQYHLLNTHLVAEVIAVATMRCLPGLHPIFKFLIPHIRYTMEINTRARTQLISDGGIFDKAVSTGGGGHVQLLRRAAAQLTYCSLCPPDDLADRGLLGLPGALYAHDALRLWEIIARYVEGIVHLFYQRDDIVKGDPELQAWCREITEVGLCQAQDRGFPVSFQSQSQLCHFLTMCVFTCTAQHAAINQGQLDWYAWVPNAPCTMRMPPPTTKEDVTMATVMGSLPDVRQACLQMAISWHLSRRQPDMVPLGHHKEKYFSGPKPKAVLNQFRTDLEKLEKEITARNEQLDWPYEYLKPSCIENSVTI
Experimental: (§1) The wild type 12-LOX (wt-12-LOX) enzyme and its mutants were expressed as fusion proteins, with an N-terminal 6×His tag, and were affinity purified by nickel-iminodiacetic acid agarose using FPLC (Biorad).
The percent inhibition was determined by comparing the enzyme rates of the control (DMSO solvent) and the inhibitor sample by following the formation of the conjugated diene product at 234 nm (ε=25,000 M^−1cm^−1). The reactions were initiated by adding 200 nM 15-LOX-2, 30 nM 12-LOX, 40 nM 15-LOX-1, or approximately 100-300 nM (total protein) of 5-LOX ammonium sulfate fraction to a cuvette with 2 mL reaction buffer, constantly stirred using a magnetic stir bar at room temperature (22° C.). Reaction buffers used for various LOX isozymes were as follows: 25 mM HEPES (pH 7.3), 0.3 mM CaCl2), 0.1 mM EDTA, 0.2 mM ATP, 0.01% Triton X-100, 10 μM AA for the crude, ammonium sulfate precipitated 5-LOX; and 25 mM HEPES (pH 7.5), 0.01% Triton X-100, 10 μM AA for 15-LOX-2, 15-LOX-1, and 12-LOX. The substrate concentration was quantitatively determined by allowing the enzymatic reaction to go to completion in the presence of soybean LOX-1. IC50 values were obtained by determining the % inhibition, relative to solvent vehicle only, at various inhibitor concentrations. […]

12-LOX mutant F414L = target: T2, 12-LOX mutant F414L (Homo sapiens, UniProt P18054, F414L); experiment: UV-Vis-based IC50 assay, F414L mutant; assay type: biochemical
T2 construct: 6xHis (N); made in house; pFastBac1 shuttle vector
T2 sequence (P18054 1-663 F414L): T1 sequence (P18054 1-663) with F414L
From the text: Based on the ML355 binding mode predicted by the modeling, all residues within 5 Å of any atom of ML355 were selected for experimental mutagenesis. The selected residues were replaced with amino acids with either bulkier or smaller side chains in order to determine what specific interactions play a role in inhibitor binding. […] The numbering refers to the UniProt accession number P18054 sequence, with the N-terminal methionine assigned as amino acid number one. The primers for all mutants were designed using the online QuikChange Primer Design tool (http://www.genomics.agilent.com/primerDesignProgram.jsp) from Agilent Technologies (CA, USA). The mutations were introduced by using the QuikChange® II XL site-directed mutagenesis kit from Agilent, following the instructions in the protocol provided. […]
as §1
The percent inhibition was determined by comparing the enzyme rates of the control (DMSO solvent) and the inhibitor sample by following the formation of the conjugated diene product at 234 nm (ε=25,000 M^−1cm^−1). […] The substrate concentration was quantitatively determined by allowing the enzymatic reaction to go to completion in the presence of soybean LOX-1. […]

## COc1cccc(CNc2ccc(S(=O)(=O)Nc3nc4c(ccc5ccccc54)s3)cc2)c1O [Compound LOX-12-001, 4-((2-hydroxy-3-methoxybenzyl)amino)-N-(naphtho[1,2-d]thiazol-2-yl)benzenesulfonamide]
wt12-LOX; against wt12-LOX
  fold increase in potency relative to ML355: 7.2 fold
wt12-LOX; wt12-LOX, 10 μM AA, 25 mM HEPES pH 7.5, 22° C.
  IC50: 50 ± 20 nM
12-LOX mutant F414L; F414L
  IC50: 180 ± 10 nM
12-LOX mutant F414L; F414L vs wt12-LOX
  fold increase in IC50 compared to wt12-LOX: 3.6 fold
